Assay results published in patent US20140378395A1, “Peptides for the Treatment of Hearing” (13Therapeutics, Inc., priority 2011, published 2014).

Experiments:
[1] = tested on: TNF-α secretion from RAW264.7 cells; assay: Inhibition of CpG-ODN-induced TNF-α secretion from RAW264.7 cells (ELISA); type: cell-based, murine; settings: for activity compared with P13 (inhibition of TNF-α after stimulation of RAW264.7 cells with CpG): SAR, versus P13; for Percent Inhibition of TNF-α secretion, CpG Stimulation / Inhibition of TNF-α secretion (percent inhibition) / Percent Inhibition of TNF-α secretion: RAW264.7, 4 hours; for Percent Inhibition of TNF-α secretion, CpG Stimulation: 1.25 ug/ml CpG-ODN; for Inhibition of TNF-α secretion (percent inhibition) / Percent Inhibition of TNF-α secretion: 1 μg/ml CpG-ODN
Description: RAW264.7 cells were plated at 1.5×10^5 cells/well-3×10^5 cells/well in 48-well plates. After 24 hours, the cells were incubated with peptides at various concentrations at room temperature in triplicate either before, simultaneous with, or after activation with various PAMPs for 18 hours. Cell-free supernatants were analyzed for cytokines by ELISA, in quadruplicate. RAW264.7 cells were stimulated with either CpG-ODN (1 μg/ml or 1.25 μg/ml), LPS (about 1 ng/ml), Poly (I:C) (about 10 μg/ml), flagellin (about 5 ng/ml), or zymosan (about 10 μg/ml). Dose response curves were done with each PAMP to determine optimal stimulation concentration. For CpG-ODN stimulation, cells were incubated for 4 hours at 37° C., supernatants collected, and TNF-α measured by ELISA. Any cytokine involved in inflammatory disease mediated toll receptor signaling can be measured using similar assays.
The effect of several peptides on TNF-α secretion from RAW264.7 cells in response to stimulation by CpG-ODN was studied. Each peptide was initially tested at 3 concentrations, 37 μM, 22.2 μM, and 11.1 μM. […] The peptides were then tested at 11.1 μM, 7.4 μM, and 3.7 μM (Table 3). […] Cell viability was examined for each peptide at the concentrations tested for TNF-α inhibition.
Inhibition of TNF-α secretion by various T-peptides was examined. RAW264.7 cells were plated at 3×10^5 cells/well in 48-well plates. After 24 h the cells were incubated with peptide at various concentrations at room temperature in triplicate for 15 minutes and then stimulated with 1.25 ug/ml CpG-ODN or 1 ng/ml LPS. Cells were then incubated for 4 hours at 37° C., supernatants collected, and TNF-α measured by ELISA. Percent inhibition was calculated by comparing TNF-α secretion from cells incubated with peptide to control cells with no peptide treatment. The inhibitive effects of peptides T3 (SEQ ID NO: 319), T11 (SEQ ID NO: 327), T21 (SEQ ID NO: 337), T36 (SEQ ID NO: 352), T37 (SEQ ID NO: 353), T51 (SEQ ID NO: 367), and T52 (SEQ ID NO: 368) were compared to inhibition by an analogue of P13 (SEQ ID NO: 369) having a sequence of nine arginine residues at the C-terminus (P13-R^9 (SEQ ID NO: 378)). (Table 4).

[2] = tested on: TNF-α secretion from RAW264.7 cells; assay: as above; type: cell-based, murine; settings: peptide 3.1 μM (Table 3), 1 μg/ml CpG-ODN, 4 hours

Row | Sequence | activity compared with P13 (inhibition of TNF-α after stimulation of RAW264.7 cells with CpG) [1] | Percent Inhibition of TNF-α secretion, CpG Stimulation ([1]; peptide 7.1 μM) | Percent Inhibition of TNF-α secretion, CpG Stimulation ([1]; peptide 11.1 μM) | Percent Inhibition of TNF-α secretion, CpG Stimulation ([1]; peptide 22 μM) | Inhibition of TNF-α secretion (percent inhibition) ([1]; peptide 7 μM (Table 3)) | Inhibition of TNF-α secretion (percent inhibition) ([1]; peptide 11 μM (Table 3)) | Percent Inhibition of TNF-α secretion ([1]; peptide 11.1 μM) | Percent Inhibition of TNF-α secretion ([1]; peptide 22.2 μM) | Percent Inhibition of TNF-α secretion ([1]; peptide 37 μM) | Inhibition of TNF-α secretion (percent inhibition) [2]
1 | AIIKVYVYACIRRRRRRRRR [T52-R^9] | superior activity | 97.8% | 99.2% | 100% | – | – | – | – | – | –
2 | AIVKLTVYACIRRRRRRRRR [T51-R^9] | superior activity | 94% | 98% | 99.7% | – | – | – | – | – | –
3 | DIIKLTVYDCIRRRRRRRRR [T36-R^9] | superior activity | 50% | 70% | 82% | – | – | – | – | – | –
4 | DIVKLYVYDCIRRRRRRRRR [T21-R^9] | superior activity | 69% | 90% | 98% | – | – | – | – | – | –
5 | DIVKVTVYDCIRRRRRRRRR [T37-R^9] | superior activity | 46% | 87% | 93% | – | – | – | – | – | –
6 | EMFTILEEYFMYRGLLGLRIKRRRRRRRRR (C-terminal nona-arginine (R9)) [74(S10)-R^9] | – | – | – | – | 80% | 92% | 91% | 100% | 100% | 35%
7 | EMFTILEEYFMYRGLLGLRIKYGRLFNEIRRRRRRRRR (C-terminal nona-arginine (R9)) [42(S1)-R^9] | – | – | – | – | 67% | 83% | 85% | 96% | 97% | 37%
8 | EMFTILEEYFMYRGLLGLRIKYGRLFNRRRRRRRRR (C-terminal nona-arginine (R9)) [68(S4)-R^9] | – | – | – | – | 83% | 95% | 95% | 100% | 100% | 69%
9 | FTILEEYFMYRGLLGLRIRRRRRRRRR (C-terminal nona-arginine (R9)) [103(S19)-R^9] | – | – | – | – | 87% | 93% | 93% | 99% | – | –
10 | ILEEYFMYRGLLGLRIRRRRRRRRR (C-terminal nona-arginine (R9)) [105(S21)-R^9] | – | – | – | – | 52% | 62% | 62% | 91% | – | –
11 | LEEYFMYGLLGLRIRRRRRRRRR (C-terminal nona-arginine (R9)) [106(S22)-R^9] | – | – | – | – | 53% | 70% | 70% | 92% | – | –
12 | MFTILEEYFMYRGLLGLRIRRRRRRRRR (C-terminal nona-arginine (R9)) [102(S18)-R^9] | – | – | – | – | 48% | 72% | 72% | 91% | – | –
13 | TILEEYFMYRGLLGLRIRRRRRRRRR (C-terminal nona-arginine (R9)) [104(S20)-R^9] | – | – | – | – | 60% | 74% | 74% | 93% | – | –
